In ChEMBL document CHEMBL3352097, “Small molecule inhibitors targeting activator protein 1 (AP-1)” (J Med Chem, 2014):

Key:
[1] = target: T1, Retinoic acid receptor alpha (Homo sapiens, UniProt P10276); experiment: Activity at RARalpha (unknown origin)
T1 sequence (P10276 whole entry): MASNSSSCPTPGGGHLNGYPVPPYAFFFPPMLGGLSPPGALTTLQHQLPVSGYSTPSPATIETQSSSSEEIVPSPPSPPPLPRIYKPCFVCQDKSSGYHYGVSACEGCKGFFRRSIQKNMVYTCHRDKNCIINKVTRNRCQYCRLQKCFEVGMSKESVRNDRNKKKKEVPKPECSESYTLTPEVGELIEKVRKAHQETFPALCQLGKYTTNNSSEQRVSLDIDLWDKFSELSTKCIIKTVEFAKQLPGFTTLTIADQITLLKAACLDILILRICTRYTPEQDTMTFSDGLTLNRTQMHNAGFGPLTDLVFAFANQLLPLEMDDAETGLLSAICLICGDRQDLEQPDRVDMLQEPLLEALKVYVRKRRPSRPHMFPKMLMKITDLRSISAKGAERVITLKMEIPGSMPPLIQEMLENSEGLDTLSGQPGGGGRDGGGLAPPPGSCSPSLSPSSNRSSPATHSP

[2] = target: T2, Retinoic acid receptor RXR-alpha (Homo sapiens, UniProt P19793); experiment: Activity at RXRalpha (unknown origin)
T2 sequence (P19793 whole entry): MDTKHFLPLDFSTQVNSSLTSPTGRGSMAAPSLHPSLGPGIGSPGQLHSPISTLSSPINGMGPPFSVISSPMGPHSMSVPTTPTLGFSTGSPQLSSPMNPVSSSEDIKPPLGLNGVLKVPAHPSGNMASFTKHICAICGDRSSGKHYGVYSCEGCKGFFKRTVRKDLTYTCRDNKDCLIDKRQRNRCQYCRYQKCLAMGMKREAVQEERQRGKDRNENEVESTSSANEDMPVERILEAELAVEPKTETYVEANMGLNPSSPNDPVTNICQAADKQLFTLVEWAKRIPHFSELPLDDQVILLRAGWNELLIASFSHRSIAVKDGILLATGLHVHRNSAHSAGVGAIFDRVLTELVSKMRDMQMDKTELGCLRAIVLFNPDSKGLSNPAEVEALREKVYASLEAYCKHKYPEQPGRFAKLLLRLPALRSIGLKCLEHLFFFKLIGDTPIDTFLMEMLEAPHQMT

[3] = target: T3, Retinoic acid receptor gamma (Homo sapiens, UniProt P13631); experiment: Activity at RARgamma (unknown origin)
T3 sequence (P13631 whole entry): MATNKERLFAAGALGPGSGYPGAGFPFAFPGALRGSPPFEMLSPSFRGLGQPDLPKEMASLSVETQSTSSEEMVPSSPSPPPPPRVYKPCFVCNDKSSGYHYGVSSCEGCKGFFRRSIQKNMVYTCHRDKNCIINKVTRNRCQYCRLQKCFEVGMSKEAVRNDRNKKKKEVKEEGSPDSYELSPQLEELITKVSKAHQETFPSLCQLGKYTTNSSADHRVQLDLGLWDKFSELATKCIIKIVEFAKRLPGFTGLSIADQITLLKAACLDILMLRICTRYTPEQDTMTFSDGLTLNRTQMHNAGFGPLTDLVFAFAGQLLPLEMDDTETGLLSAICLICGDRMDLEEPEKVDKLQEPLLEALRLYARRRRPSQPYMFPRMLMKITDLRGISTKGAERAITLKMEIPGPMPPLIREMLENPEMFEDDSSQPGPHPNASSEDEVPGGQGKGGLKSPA

[4] = target: T4, Retinoic acid receptor beta (Homo sapiens, UniProt P10826); experiment: Activity at RARbeta (unknown origin)
T4 sequence (P10826 whole entry): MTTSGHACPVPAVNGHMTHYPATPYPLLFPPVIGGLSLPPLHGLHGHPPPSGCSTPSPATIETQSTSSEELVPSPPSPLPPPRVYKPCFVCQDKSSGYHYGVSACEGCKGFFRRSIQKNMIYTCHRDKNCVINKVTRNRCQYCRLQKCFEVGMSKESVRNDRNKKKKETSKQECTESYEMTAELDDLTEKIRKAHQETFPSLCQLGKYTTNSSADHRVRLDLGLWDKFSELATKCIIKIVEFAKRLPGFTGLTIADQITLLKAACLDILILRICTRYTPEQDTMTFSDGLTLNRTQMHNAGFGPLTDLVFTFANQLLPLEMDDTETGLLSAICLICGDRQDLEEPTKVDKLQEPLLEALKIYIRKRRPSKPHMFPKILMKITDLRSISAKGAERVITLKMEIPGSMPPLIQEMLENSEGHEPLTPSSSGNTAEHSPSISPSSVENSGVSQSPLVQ

Transcription factor Jun = Transcription factor Jun (Homo sapiens, UniProt P05412); experiment: Inhibition of AP-1-mediated transcriptional activation in HEK293 cells by luciferase reporter gene assay; type: cell-based
Rattus norvegicus = experiment: Antiinflammatory activity in carrageenan injection-induced rat inflammation model assessed as inhibition of rat paw edema; type: functional

Transcription factor Jun, sequence (P05412 whole entry): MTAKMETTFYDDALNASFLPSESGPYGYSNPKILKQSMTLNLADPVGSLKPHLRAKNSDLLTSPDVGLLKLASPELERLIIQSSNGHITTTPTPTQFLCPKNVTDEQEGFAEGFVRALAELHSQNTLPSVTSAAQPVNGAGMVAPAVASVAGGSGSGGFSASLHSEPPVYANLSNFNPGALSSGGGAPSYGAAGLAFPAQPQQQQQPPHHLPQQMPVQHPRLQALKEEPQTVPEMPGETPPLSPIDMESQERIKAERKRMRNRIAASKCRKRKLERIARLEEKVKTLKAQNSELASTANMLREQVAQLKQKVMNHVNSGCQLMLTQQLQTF

SMILES	EC50 [1]	EC50 [2]	EC50 [3]	EC50 [4]	IC50 (Transcription factor Jun)	inhibition (INH) (Rattus norvegicus)
CC1=C(/C=C/C(=C/C=C/C(C)=C/C(=O)O)c2ccc(C)cc2)C(C)(C)CCC1	> 1 µM	> 1 µM	> 1 µM	> 1 µM		
CNc1nc(-c2ccccc2)c(-c2nc3ccccc3c(=O)n2-c2ccccc2OC)s1					0.5 µM	56%
